For assay [1], the system named is 10-week-old ovariectomized (OVX) mice. The assay can be described thus: Ovariectomized (OVX) mouse model. In kind it is in vivo. An excerpt:
FIG. 21 depicts histomorphometric analyses of the 5th lumbar vertebral bodies after LLP2A-Ale treatment of 10-week-old ovariectomized (OVX) mice, showing increases in osteoblast numbers, activities and bone formation rate/bone surface (BFR/BS) post-treatment. Analyses included trabecular bone area (%), osteoblast surface (Ob/BS), mineralizing surface (MS/BS) activities and BFR/BS (P<0.05).
Representative fluorescent images from the trabecular bone at the 5th LVB (Top panel: white arrowheads illustrate osteoblasts; Bottom panel: yellow arrows illustrate double labeled trabecular bone surfaces).
FIG. 23 depicts histomorphometry analyses of the right mid-femurs included bone formation at the endosteal (Ec) or periosteal (Ps.) bone surfaces, and cortical bone thickness of 10-week-old ovariectomized (OVX) mice. […] Three-point bending was performed on left femurs to obtain maximum stress of the femurs.
Short yellow arrows illustrated double labeled endocortical bone surfaces. (a, p<0.05 versus Sham; b, P<0.05 vs. OVX+PBS, c, P<0.05 vs. OVX+LLP2A; d, P<0.05 vs. OVX+Ale. Data are represented as Mean±SD).

A further assay relates to NOD/SCID/MPSVII mice. The assay can be described thus: huMSC transplantation with LLP2A-Ale in immunodeficient mice. In kind it is in vivo, mouse. An excerpt: Human MSCs (huMSCs) were obtained and injected together with LLP2A-Ale to immunodeficient mice, NOD/SCID/mucopolysaccharidosis type VII (MPSVII). This mouse strain lacked the β-glucuronidase (GUSB) enzyme. The donor cells could be easily detected using biochemical detection of β-glucuronidase (See Meyerrose, T. E., et al., Stem Cells, 2007. 25(1): p. 220-7; Meyerrose, T. E., et al., Stem Cells, 2008. 26(7): p. 1713-22). At three-month of age, the mice received a single intravenous (i.v.) injection of either vehicle (100 μl PBS/mouse), huMSCs (5×10^5/100 μl/PBS/mouse), huMSCs+LLP2A (5 nM/mouse) or huMSCs+LLP2A-Ale (500 ng/mouse; total compound weight 3.5 μg, with alendronate concentration of 500 ng/mouse). The alendronate dose we used for the study was approximately one-fifth of the therapeutic dose for the treatment of osteoporosis (See Colon-Emeric, C. S., JAMA, 2006, 296(24): p. 2968-9; Ma, Y. L., et al., Endocrinology, 2003. 144(5): p. 2008-15). […] HuMSC, as shown by GUSB+red stain, were only present at the trabecular bone surface in the LLP2A-Ale-treated group (lower panel). There was no demonstrable GUSB activity in the lung, liver, kidney and LVB that received PBS (top panels) or huMSCs (middle panel). Cancellous bone mass in the vertebral body was—more than 40% higher in the group treated with MSC+LLP2A-Ale (cancellous bone volume, BV/TV 13.9±2.2%) compared to PBS (BV/TV 9.4±1.7%), MSC (BV/TV 10.2±1.9%) or MSC+LLP2A (BV/TV 10.5±0.5%) controls three weeks after a single injection of huMSC and LLP2A-Ale.
In FIG. 8, Three-month-old MSPVII mice received a single intravenous injection of either of PBS, huMSC (5×10^5) or huMSC+LLP2A or LLP2A-Ale. The mice were sacrificed 24 hours later. Following sacrifice, small portions of organ including lumbar vertebral bodies (LVB) were harvested and frozen in Optimal Cutting Temperature embedding media. The sections were stained using naphthol-AS-BI-β-Dglucuronide (GUSB) as a substrate. Representative sections from lung, liver, kidney and lumbar vertebral (LVB) trabecular bone regions were presented. […] Isolated GUSB-positive cells were also observed within bone marrow of the LVB in […] group.
The NOD-SCID MPSVII strain was the result of extensive backcrossing of the mutant GUSB allele from the B6.C-H-2^bm1/ByBirgus^mps/+ mouse onto the NOD/LtSz-scid background. Animals were bred and maintained at the Stem Cell Department of the UC Davis Medical Center under approved animal care protocols. Affected animals were generated by breeding mice heterozygous for the MPSVII mutation. Homozygous GUSB-deficient pups were identified at birth by biochemical analysis of toe tissue.
Serum levels of the amino terminal propeptide of type 1 procollagen (P1NP), osteocalcin and C-terminal telopeptides of type I collagen (CTX-I) were measured using mouse sandwich ELISA kits from Biomedical Technologies (Stroughton, Mass.) or Immunodiagnostic System (Fountain Hills, Ariz.). The manufacturer's protocols were followed and all samples were assayed in duplicate. A standard curve was generated from each kit and the absolute concentrations were extrapolated from the standard curve. The coefficients of variations (CVs) for inter-assay and intra-assay measurements were less than 10% for all assays and are similar to the manufacturer's references (Yao, W., et al., Arthritis Rheum, 2008, 58(6): p. 1674-86; Yao, W., et al., Arthritis Rheum, 2008, 58(11): p. 3485-3497).
After fixation in 4% paraformaldehyde, the right distal femurs, mid-femurs and the 5th lumbar vertebral bodies were dehydrated in graded concentrations of ethanol and xylene and embedded un-decalcified in methyl methacrylate. The frontal sections (8 μm thick) were cut using a vertical bed microtome (Leica/Jung 2265) and affixed to slides coated with a 2% gelatin solution. Unstained 8-μm-thick sections were used for assessing fluorochrome labeling and dynamic changes in bone. […]

[2] abbreviates: 5th lumbar vertebral body, three weeks, co-injected with huMSC.
Setting [3] is: serum, three weeks, co-injected with huMSC.
Setting [4] is: three weeks following huMSCs transplantation.

These results are taken from patent US9119884B2, “LLP2A-bisphosphonate conjugates for osteoporosis treatment” (The Regents of the University of California, priority 2010, dated 2015).

Entries after “also recorded” stand apart in the source; their conditions may differ.

For the compound `Cc1ccccc1NC(=O)Nc1ccc(CC(=O)N[C@@H](CCCCNC(=O)/C=C/c2cccnc2)C(=O)N[C@@H](CCCC(=O)O)C(=O)NC2(C(=O)NCCOCCOCCNC(=O)CCC(=O)NCCOCCOCCNC(=O)CCC(=O)N[C@@H](CCCCNC(=O)[C@H](N)CSC3CC(=O)N(CC4CCC(C(=O)NCCCC(O)(P(=O)(O)O)P(=O)(O)O)CC4)C3=O)C(N)=O)CCCCC2)cc1` (stereo partly drawn) [LLP2A-Ale, LLP2A-Alendronate], the “osteoblast numbers, activities and bone formation rate/bone surface (BFR/BS)” value in assay [1] (5th lumbar vertebral bodies) is “increases”. Also, the maximum stress entry in assay [1] (femur three-point bending, single IV injection of conjugate or four weeks of PTH) is given as “not significantly altered”. Besides, the endocortical bone formation entry in assay [1] (mid-femur, vs OVX) is “increases”. For the same compound, the cortical bone thickness result in assay [1] (mid-femur, single IV injection of conjugate or four weeks of PTH) was “not significantly altered”. The “osteoblasts and osteocytes at cortical and trabecular bone regions in LVB” value with NOD/SCID/MPSVII mice (3 weeks following co-injection with GFP-labeled huMSCs) is recorded as “increased”. Besides, in the assay with NOD/SCID/MPSVII mice (setting [2]), the mineral apposition rate result is “significant increases”, the osteoblast surface result was “significant increases” and the “surface-based bone formation rate (BFR/BS)” value is recorded as “significant increases”. For the same compound, the “huMSCs (GUSB+) on/adjacent to bone surface” value in the assay on NOD/SCID/MPSVII mice (24 hours after single i.v. injection of huMSCs with compound) is “greatly increased; also recorded: Significant amount; also recorded: seen accumulated in bone marrow, adjacent to both trabecular and periosteal bone surfaces”. Besides, the intra-cortical bone remodeling result with NOD/SCID/MPSVII mice (mid-femur, three weeks, co-injected with huMSC) was “markedly increased”. In the assay on NOD/SCID/MPSVII mice (setting [3]), the osteocalcin result is on record as “significant increases” and the “procollagen 1 N-terminal propeptide (P1NP)” value is recorded as “significant increases”. In the assay on NOD/SCID/MPSVII mice (three weeks after single injection of huMSC and compound, vs PBS, MSC, MSC+LLP2A), the “cancellous bone mass in the vertebral body, higher compared to controls” value is listed as “more than 40%”. In addition, in the assay with NOD/SCID/MPSVII mice (three weeks after transplantation, co-injected with huMSCs), the “huMSCs (GUSB+) adjacent to/retained in bone” value is recorded as “only seen adjacent to the bone surface; also recorded: retention of the transplanted huMSCs in bone”. Further, in the assay on NOD/SCID/MPSVII mice (setting [4]), the cortical bone formation entry is on record as “increases” and the trabecular bone formation result was “increases”. The “bone formation rates at endocortical and periosteal surfaces of the mid-femur, increase” value with NOD/SCID/MPSVII mice (three weeks, co-injected with huMSC) is reported as 50-100%. Besides, the “cancellous bone volume, BV/TV” value with NOD/SCID/MPSVII mice (vertebral body, three weeks after single injection of huMSC with or without compound) is reported as 13.9±2.2%.
